Where only a bound is given, the exact number is not on record here.

The first test has as its target T1, Prostaglandin G/H synthase 2 (Homo sapiens) (UniProt P35354).
T1 sequence (whole entry): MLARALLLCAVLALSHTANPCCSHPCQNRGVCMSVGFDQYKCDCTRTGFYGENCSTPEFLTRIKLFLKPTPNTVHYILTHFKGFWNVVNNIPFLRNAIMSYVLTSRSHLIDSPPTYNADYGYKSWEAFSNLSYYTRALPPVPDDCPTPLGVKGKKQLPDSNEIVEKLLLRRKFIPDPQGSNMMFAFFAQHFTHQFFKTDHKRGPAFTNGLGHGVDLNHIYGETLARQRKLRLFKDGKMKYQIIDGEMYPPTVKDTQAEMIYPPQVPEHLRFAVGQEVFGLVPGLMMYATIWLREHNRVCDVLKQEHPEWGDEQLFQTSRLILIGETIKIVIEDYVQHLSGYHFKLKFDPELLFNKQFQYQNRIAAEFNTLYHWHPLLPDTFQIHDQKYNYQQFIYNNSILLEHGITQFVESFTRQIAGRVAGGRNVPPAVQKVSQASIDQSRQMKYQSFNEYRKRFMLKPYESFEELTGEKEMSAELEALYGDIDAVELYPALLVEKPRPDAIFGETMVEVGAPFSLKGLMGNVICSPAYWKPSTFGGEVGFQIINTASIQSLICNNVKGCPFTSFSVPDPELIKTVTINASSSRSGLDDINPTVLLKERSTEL
Particulars: Blood, at 10 µM.
Description: In vitro inhibition of Prostaglandin G/H synthase 2 in human whole blood at 10 uM
As to `COC1(c2cc(-c3ccc(S(C)(=O)=O)cc3)n(-c3ccc(C(F)(F)F)cc3)n2)CCCO1` (stereo not drawn), the inhibition was 70%.
For the compound `COC1(c2cc(-c3ccc(S(C)(=O)=O)cc3)n(-c3ccc(Cl)cc3)n2)CCCO1` (stereo not drawn), the inhibition worked out at 80%.
For the compound `COC1(c2cc(-c3ccc(S(C)(=O)=O)cc3)n(-c3ccccc3)n2)CCCO1` (stereo not drawn), the inhibition worked out at 65%.
Take `COC1(c2cc(-c3ccc(S(C)(=O)=O)cc3)n(-c3ccc(C)cc3)n2)CCCO1` (stereo not drawn): the inhibition stood at 90%.
Still for that read-out and setting: to `COC1(c2cc(-c3ccc(S(C)(=O)=O)cc3)n(-c3ccc(Br)cc3)n2)CCCO1` (stereo not drawn) belongs 84%.
Compound `COC1(c2cc(-c3ccc(S(C)(=O)=O)cc3)n(-c3ccc(F)cc3)n2)CCCO1` (stereo not drawn) came in with an inhibition of 75%.
In turn, `COC1(c2cc(-c3ccc(S(C)(=O)=O)cc3)n(-c3ccc(C#N)cc3)n2)CCCO1` (stereo not drawn) gave an inhibition of 25%.

The target of a further test is T2, Prostaglandin G/H synthase 1 (Homo sapiens, UniProt P23219). Nature of the test: In vitro inhibition of Prostaglandin G/H synthase 1 in human whole blood at 100 uM.
T2 sequence (P23219 whole entry): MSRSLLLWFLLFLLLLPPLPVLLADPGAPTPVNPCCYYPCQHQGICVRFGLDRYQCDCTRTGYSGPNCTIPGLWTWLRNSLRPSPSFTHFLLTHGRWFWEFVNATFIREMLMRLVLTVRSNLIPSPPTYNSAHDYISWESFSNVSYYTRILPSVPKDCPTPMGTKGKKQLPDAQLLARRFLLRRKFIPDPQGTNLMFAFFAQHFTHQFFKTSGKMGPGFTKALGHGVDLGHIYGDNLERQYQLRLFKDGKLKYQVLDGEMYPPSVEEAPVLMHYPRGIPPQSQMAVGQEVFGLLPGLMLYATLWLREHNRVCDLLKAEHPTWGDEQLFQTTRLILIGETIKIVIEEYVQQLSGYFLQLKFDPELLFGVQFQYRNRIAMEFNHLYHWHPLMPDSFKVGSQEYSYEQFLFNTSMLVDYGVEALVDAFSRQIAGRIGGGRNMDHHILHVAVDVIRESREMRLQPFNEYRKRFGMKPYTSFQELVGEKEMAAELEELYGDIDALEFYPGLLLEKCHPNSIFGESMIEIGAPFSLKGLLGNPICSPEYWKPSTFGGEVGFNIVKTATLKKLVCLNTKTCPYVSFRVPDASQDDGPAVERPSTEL
Details: not given
In kind it is tissue-based.
In the case of `COC1(c2cc(-c3ccc(S(C)(=O)=O)cc3)n(-c3ccc(C(F)(F)F)cc3)n2)CCCO1` (stereo not drawn), the inhibition amounted to 50%.
With `COC1(c2cc(-c3ccc(S(C)(=O)=O)cc3)n(-c3ccc(Cl)cc3)n2)CCCO1` (stereo not drawn), the inhibition was determined as 60%.
Take `COC1(c2cc(-c3ccc(S(C)(=O)=O)cc3)n(-c3ccccc3)n2)CCCO1` (stereo not drawn): the inhibition is 20%.
Take `COC1(c2cc(-c3ccc(S(C)(=O)=O)cc3)n(-c3ccc(C)cc3)n2)CCCO1` (stereo not drawn): the inhibition was 55%.
Compound `COC1(c2cc(-c3ccc(S(C)(=O)=O)cc3)n(-c3ccc(Br)cc3)n2)CCCO1` (stereo not drawn) returned an inhibition of 72%.
On to `COC1(c2cc(-c3ccc(S(C)(=O)=O)cc3)n(-c3ccc(F)cc3)n2)CCCO1` (stereo not drawn), for which the inhibition came out at 25%.
The same measure, in the same setting: the figure for `COC1(c2cc(-c3ccc(S(C)(=O)=O)cc3)n(-c3ccc(C#N)cc3)n2)CCCO1` (stereo not drawn) is 0%.

The target in another test is T2, Prostaglandin G/H synthase 1. The experiment in a line: In vitro inhibition of Prostaglandin G/H synthase 1 in human whole blood. In kind it is tissue-based.
Details: not given
`COC1(c2cc(-c3ccc(S(C)(=O)=O)cc3)n(-c3ccc(C)cc3)n2)CCCO1` (stereo not drawn) gave an IC50 above 100000 nM.

The next test has as its target T1, Prostaglandin G/H synthase 2 (Homo sapiens). The note with it: Blood, at 1 µM.
Description: In vitro inhibition of Prostaglandin G/H synthase 2 in human whole blood at 1 uM
In the case of `COC1(c2cc(-c3ccc(S(C)(=O)=O)cc3)n(-c3ccc(C(F)(F)F)cc3)n2)CCCO1` (stereo not drawn), the inhibition came to 25%.
Compound `COC1(c2cc(-c3ccc(S(C)(=O)=O)cc3)n(-c3ccc(Cl)cc3)n2)CCCO1` (stereo not drawn) displayed an inhibition of 25%.
Still for that read-out and setting: the figure for `COC1(c2cc(-c3ccc(S(C)(=O)=O)cc3)n(-c3ccccc3)n2)CCCO1` (stereo not drawn) is 30%; for `COC1(c2cc(-c3ccc(S(C)(=O)=O)cc3)n(-c3ccc(C)cc3)n2)CCCO1` (stereo not drawn) it is 55%; for `COC1(c2cc(-c3ccc(S(C)(=O)=O)cc3)n(-c3ccc(Br)cc3)n2)CCCO1` (stereo not drawn) it is 13%.
The compound `COC1(c2cc(-c3ccc(S(C)(=O)=O)cc3)n(-c3ccc(F)cc3)n2)CCCO1` (stereo not drawn) returned an inhibition of 40%.
In turn, `COC1(c2cc(-c3ccc(S(C)(=O)=O)cc3)n(-c3ccc(C#N)cc3)n2)CCCO1` (stereo not drawn) came in with an inhibition of 30%.

In another test the target is T3, Prostaglandin G/H synthase 2 (Homo sapiens, UniProt P35354).
T3 sequence (P35354 whole entry): T1 sequence (whole entry)
Nature of the test: In vitro inhibition of Prostaglandin G/H synthase 2 in human whole blood. In kind it is tissue-based.
Details: not given
In turn, `COC1(c2cc(-c3ccc(S(C)(=O)=O)cc3)n(-c3ccc(C)cc3)n2)CCCO1` (stereo not drawn) registered an IC50 of 1200 nM.

The values are drawn from ChEMBL document CHEMBL1138722, “3-(2-Methoxytetrahydrofuran-2-yl)pyrazoles: a novel class of potent, selective cyclooxygenase-2 (COX-2) inhibitors” (Bioorg Med Chem Lett, 2004).
